This is an account of results in publication PMC10174618, “Monoterpenoid aryl hydrocarbon receptor allosteric antagonists protect against ultraviolet skin damage in female mice” (Nature Communications, 2023).

Common to all, as to test: biochemical
Holding throughout (design): KINOMEscan scanMAX active site-directed competition binding assay, percent of control, 468 kinases
Holding throughout (settings): competition binding, percent of control

One assay has as its target ACVRL1 (Homo sapiens, UniProt P37023). The method in brief: (§1)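 KINOMEscan active site-directed competition binding assay against 468 human kinases with 100 μM S-carvone. Binding expressed as % of control, with 35% of control as the inhibition threshold.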
Another assay addresses ALK(C1156Y) (Homo sapiens, UniProt Q9UM73, C1156Y). The essentials: as §1
A further assay addresses CSNK1E (Homo sapiens, UniProt P49674). The essentials: as §1
The next assay concerns the target CSNK1G3 (Homo sapiens, UniProt Q9Y6M4). The method in brief: as §1
Another assay deals with T1, DRAK1 (Homo sapiens, UniProt Q9UEE5).
T1 construct: gene STK17A
T1 sequence (Q9UEE5 whole entry): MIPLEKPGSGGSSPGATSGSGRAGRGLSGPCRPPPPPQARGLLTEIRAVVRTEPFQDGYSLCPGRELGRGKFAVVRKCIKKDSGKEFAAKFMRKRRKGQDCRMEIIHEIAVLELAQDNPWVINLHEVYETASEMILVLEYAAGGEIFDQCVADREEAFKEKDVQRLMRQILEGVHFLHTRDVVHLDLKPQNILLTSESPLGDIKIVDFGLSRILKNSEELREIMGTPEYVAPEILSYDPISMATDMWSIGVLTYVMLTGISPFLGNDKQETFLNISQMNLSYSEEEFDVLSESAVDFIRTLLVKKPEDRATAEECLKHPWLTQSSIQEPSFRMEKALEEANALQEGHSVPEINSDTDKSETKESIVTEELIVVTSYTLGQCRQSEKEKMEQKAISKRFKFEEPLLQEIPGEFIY
The method in brief: as §1

The target of the next assay is FGFR4 (Homo sapiens, UniProt P22455). The essentials: as §1
The target in another assay is FLT3(ITD,F691L) (Homo sapiens, UniProt P36888, F691L/ITD). The essentials:
as §1

The next assay has as its target GAK (Homo sapiens, UniProt O14976). The method in brief:
as §1

The target of another assay is HASPIN (Homo sapiens, UniProt Q8TF76). The essentials: as §1
Chain of HASPIN (Q8TF76 whole entry): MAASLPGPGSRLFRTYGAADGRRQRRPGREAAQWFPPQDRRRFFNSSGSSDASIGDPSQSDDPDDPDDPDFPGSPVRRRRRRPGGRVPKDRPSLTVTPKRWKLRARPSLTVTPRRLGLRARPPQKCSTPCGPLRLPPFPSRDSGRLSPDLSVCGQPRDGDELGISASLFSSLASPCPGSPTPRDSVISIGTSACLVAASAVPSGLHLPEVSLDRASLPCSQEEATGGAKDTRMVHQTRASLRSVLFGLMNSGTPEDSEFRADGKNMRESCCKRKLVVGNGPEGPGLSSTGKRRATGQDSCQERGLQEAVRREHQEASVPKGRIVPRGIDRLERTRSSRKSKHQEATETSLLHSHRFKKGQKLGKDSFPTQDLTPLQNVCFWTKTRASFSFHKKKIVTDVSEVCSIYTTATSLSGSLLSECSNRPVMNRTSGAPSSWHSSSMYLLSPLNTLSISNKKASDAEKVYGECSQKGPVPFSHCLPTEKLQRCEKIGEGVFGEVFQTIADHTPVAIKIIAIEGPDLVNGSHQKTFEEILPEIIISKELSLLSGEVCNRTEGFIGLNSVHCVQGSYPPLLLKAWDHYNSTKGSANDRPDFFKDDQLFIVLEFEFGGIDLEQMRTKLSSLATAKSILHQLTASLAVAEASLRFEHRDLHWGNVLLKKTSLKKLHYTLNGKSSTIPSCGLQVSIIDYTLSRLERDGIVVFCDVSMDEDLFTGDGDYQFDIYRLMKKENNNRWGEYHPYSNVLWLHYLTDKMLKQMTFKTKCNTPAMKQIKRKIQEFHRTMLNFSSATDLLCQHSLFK
The target in a further assay is HIPK1 (Homo sapiens, UniProt Q86Z02). The essentials:
as §1

A further assay has as its target KIT(V559D,V654A) (Homo sapiens, UniProt P10721, V559D/V654A). The essentials: as §1
For the next assay, the target named is MYO3B (Homo sapiens, UniProt Q8WXR4). The essentials:
as §1

Another assay has as its target NLK (Homo sapiens, UniProt Q9UBE8). The essentials:
as §1

Another assay addresses PIK3C2G (Homo sapiens, UniProt O75747). The method in brief: as §1
In another assay the target is PIP5K1C (Homo sapiens, UniProt O60331). The essentials: as §1
The next assay deals with RIOK1 (Homo sapiens, UniProt Q9BRS2). The essentials: as §1
In another assay the target is RIPK1 (Homo sapiens, UniProt Q13546). The essentials:
as §1

For assay [1], the target named is T2, RSK2(Kin.Dom.2-C-terminal) (Homo sapiens, UniProt P51812).
T2 construct: gene RPS6KA3; Kin.Dom.2-C-terminal
The method in brief:
as §1

The next assay has as its target T3, S6K1 (Homo sapiens, UniProt P23443).
T3 construct: gene RPS6KB1
The essentials: as §1

Another assay concerns the target STK16 (Homo sapiens, UniProt O75716). The essentials:
as §1

A further assay concerns the target STK35 (Homo sapiens, UniProt Q8TDR2). The method in brief:
as §1

Chain of STK35 (Q8TDR2 whole entry): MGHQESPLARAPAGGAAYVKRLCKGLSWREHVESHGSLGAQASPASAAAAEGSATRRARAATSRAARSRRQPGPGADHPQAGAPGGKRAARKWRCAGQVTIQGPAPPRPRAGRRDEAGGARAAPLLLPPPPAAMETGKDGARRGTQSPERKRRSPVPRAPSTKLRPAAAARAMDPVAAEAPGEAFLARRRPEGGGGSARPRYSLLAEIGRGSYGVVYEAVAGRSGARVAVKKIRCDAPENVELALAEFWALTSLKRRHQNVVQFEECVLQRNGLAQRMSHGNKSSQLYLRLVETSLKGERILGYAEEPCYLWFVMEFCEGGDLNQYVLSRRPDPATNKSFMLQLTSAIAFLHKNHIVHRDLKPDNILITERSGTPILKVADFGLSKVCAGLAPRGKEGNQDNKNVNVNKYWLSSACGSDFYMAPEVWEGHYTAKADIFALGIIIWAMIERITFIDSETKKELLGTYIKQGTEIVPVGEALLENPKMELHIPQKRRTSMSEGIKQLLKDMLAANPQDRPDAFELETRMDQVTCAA
Chain of PIK3C2G (O75747 whole entry): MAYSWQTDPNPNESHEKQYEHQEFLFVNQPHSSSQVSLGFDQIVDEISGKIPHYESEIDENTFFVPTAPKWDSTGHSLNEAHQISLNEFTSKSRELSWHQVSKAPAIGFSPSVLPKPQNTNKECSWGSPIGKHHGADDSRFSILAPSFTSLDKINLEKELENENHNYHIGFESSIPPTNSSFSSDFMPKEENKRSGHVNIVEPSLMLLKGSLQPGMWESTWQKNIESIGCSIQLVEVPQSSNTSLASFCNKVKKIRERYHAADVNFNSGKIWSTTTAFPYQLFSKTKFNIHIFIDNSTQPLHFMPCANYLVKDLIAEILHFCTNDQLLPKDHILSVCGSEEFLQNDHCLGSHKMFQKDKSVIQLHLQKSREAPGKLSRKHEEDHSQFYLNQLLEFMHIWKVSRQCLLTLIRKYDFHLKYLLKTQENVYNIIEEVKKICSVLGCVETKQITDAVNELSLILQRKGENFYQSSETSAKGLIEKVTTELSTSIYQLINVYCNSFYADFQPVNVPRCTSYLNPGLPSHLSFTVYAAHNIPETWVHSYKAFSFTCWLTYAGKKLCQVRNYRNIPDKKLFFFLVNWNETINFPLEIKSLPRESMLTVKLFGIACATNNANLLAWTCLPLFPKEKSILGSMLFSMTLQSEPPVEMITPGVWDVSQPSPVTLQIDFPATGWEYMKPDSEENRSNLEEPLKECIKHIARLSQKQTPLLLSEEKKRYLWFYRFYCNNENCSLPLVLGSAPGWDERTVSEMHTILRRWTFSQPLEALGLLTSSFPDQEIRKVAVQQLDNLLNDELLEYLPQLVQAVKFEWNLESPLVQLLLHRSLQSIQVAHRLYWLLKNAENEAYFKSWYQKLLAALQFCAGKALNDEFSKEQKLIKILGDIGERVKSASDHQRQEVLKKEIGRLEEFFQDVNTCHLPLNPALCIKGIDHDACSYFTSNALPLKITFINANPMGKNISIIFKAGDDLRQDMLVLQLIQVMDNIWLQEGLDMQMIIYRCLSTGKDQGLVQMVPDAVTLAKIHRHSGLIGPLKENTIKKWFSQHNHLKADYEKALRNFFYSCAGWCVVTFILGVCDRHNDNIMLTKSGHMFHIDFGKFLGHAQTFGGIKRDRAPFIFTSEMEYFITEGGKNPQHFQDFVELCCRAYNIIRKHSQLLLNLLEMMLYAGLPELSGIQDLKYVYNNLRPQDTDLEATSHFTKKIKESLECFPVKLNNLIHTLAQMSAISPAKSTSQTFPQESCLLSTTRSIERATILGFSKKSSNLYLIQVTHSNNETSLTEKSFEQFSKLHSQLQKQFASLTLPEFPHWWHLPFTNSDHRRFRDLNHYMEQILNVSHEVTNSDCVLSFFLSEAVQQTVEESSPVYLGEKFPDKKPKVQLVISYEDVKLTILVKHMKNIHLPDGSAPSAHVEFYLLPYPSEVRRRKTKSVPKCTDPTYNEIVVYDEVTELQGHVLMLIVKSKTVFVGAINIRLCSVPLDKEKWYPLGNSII
Chain of MYO3B (Q8WXR4 whole entry): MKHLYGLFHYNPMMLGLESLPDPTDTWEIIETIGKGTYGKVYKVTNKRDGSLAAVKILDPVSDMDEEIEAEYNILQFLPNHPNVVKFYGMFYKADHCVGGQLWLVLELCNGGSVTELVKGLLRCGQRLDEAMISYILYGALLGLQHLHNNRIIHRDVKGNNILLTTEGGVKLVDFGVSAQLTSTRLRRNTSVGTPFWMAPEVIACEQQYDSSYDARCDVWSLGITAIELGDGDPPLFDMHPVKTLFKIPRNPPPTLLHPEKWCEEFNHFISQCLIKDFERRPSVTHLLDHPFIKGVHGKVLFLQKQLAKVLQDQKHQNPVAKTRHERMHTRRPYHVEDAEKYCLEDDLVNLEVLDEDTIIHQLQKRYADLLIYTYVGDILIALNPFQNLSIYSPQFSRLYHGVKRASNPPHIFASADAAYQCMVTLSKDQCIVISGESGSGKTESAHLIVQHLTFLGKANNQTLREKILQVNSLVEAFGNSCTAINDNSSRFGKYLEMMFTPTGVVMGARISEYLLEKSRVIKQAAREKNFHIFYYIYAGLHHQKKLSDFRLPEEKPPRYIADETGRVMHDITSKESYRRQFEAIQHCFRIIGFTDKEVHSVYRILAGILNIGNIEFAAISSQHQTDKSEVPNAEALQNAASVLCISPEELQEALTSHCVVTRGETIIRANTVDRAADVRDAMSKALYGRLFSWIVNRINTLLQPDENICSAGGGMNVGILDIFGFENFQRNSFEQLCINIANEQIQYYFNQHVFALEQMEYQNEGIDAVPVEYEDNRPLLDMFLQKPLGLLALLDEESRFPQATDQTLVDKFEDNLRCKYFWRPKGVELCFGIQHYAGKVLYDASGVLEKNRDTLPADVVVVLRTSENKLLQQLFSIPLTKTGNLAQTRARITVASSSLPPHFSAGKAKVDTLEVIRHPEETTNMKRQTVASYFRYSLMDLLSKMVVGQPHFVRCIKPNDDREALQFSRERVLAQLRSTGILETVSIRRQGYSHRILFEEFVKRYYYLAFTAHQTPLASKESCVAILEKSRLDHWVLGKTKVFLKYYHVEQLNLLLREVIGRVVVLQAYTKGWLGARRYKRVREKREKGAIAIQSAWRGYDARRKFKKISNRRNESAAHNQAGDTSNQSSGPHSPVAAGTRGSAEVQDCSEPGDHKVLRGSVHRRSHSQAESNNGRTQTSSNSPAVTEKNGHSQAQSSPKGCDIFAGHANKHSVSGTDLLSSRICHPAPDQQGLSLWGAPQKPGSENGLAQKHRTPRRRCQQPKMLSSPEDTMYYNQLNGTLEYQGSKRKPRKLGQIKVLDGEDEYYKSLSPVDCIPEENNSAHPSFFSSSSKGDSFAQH
T3 sequence (P23443 whole entry): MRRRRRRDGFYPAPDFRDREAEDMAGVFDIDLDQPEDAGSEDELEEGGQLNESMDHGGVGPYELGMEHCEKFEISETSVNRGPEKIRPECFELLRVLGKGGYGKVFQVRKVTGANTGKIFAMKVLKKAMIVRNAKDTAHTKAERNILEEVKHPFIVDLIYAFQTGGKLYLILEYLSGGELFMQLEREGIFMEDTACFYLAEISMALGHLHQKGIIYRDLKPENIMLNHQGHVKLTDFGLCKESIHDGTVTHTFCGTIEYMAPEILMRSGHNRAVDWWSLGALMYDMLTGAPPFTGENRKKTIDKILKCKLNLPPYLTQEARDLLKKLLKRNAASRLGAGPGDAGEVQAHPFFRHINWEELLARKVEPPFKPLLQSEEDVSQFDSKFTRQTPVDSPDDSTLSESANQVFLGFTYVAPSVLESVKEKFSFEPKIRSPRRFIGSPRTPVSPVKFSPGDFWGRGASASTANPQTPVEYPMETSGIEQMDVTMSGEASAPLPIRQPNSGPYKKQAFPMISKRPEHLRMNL

Regarding `C=C(C)[C@H]1CC=C(C)C(=O)C1` [S-carvone], the remaining binding at 100 µM on ACVRL1 is 88%; on ALK(C1156Y), 70%; at CSNK1E, 90%; at CSNK1G3, 100%; at DRAK1, 100%; at FGFR4, 92%. Besides, the remaining binding at 100 µM at FLT3(ITD,F691L) worked out at 71%; on GAK, 83%; at HASPIN, 74%; at HIPK1, 61%; on KIT(V559D,V654A), 80%; on MYO3B, 94%. For the same compound, the remaining binding at 100 µM on NLK stood at 81%; on PIK3C2G, 62%; on PIP5K1C it was 100%; at RIOK1 it was 100%; at RIPK1 it was 87%; in [1], 67%. Further, the values for the remaining binding at 100 µM at S6K1, on STK16 and on STK35 were 93%, 90% and 92%, respectively.
